From patent US12590099B2, “Inhibitors of histone deacetylase useful for the treatment or prevention of HIV infection” (Merck Sharp & Dohme LLC, priority 2018, dated 2026)

Legend:
Type in all cases: biochemical
Recombinant human HDAC1 = molecular target: T1, Recombinant human HDAC1 (Homo sapiens, UniProt Q13547); experiment: Human HDAC enzyme inhibitor Fluor-de-Lys assay, HDAC1
T1 construct: FLAG (C); made in house
Experimental: Human HDAC Enzyme Inhibitor Fluor-De-Lys Assay
Recombinant human HDAC8 (BML-SE145-0100) and HDAC10 (BML-SE559-0050) enzymes, HDAC substrates BML-KI104 and BML-KI178, and HDAC developer solutions BML-KI105 and BML-KI176 were purchased from Enzo Life Sciences. […] HDAC inhibitor suberoylanilide hydroxamic acid (SAHA) was obtained from Indofine and trichostatin A (TSA) was obtained from Sigma-Aldrich.
Recombinant human HDAC1, HDAC2, and HDAC3/SMRT heterodimer were prepared by Merck Research Laboratories. […] The eluted protein was then passed over an anti-HDAC1 immunoaffinity column to remove any complexes containing HDAC1. […]
The histone deacetylase activities of HDAC1, HDAC2, HDAC3, HDAC6, and HDAC8 were measured in modified FLUOR DE LYS assays in 384-well format. In this assay, HDAC enzymes are initially incubated with an ε-acetyl (or -trifluoroacetyl)-L-lysine-containing substrate with a C-terminal amide having aminomethylcoumarin as the amine component. HDACs cleave the ε-acetyl group, rendering the resulting product susceptible to AMC cleavage by trypsin. The released AMC is then detected by its fluorescence.
The HDAC3/SMRT assay employed buffer B, consisting of 20 mM HEPES, pH 8.0, 1 mM MgCl2, 50 mM NaCl, 2.7 mM KCl, 0.05% BSA, 0.005% Tween 20, and 10 μM IP4. […] The HDAC8 assay employed buffer D, consisting of 20 mM HEPES, pH 8.0, 1 mM MgCl2, 100 mM NaCl, 20 mM KCl, 0.10% n-octyl-β-D-glucoside (Anatrace) and 0.05% BSA. All steps were performed at room temperature (23° C.). The assay was performed by pre-incubating serial dilutions of test compounds with the target HDAC prior to initiation with substrate. Each compound was titrated in a 10-point dose response, using a 1:3 fold dilution scheme, with 0.15 ul of solution added by ECH0555 to the plate, followed by the addition of 20 μl of the appropriate HDAC isoform diluted in appropriate assay buffer. […] Final conditions used for each assay were: 1. HDAC 1, 0.3 nM total enzyme, 20 μM substrate BML-KI104; 2. […] HDAC 3/SMRT, 0.3 nM total enzyme, 20 μM substrate BML-KI104; 4. […] The reactions were stopped and developed by addition of 30 ul of HDAC developer solution containing a saturating level of HDAC inhibitor as follows: 1.

[1] = molecular target: T2, Recombinant human HDAC3/SMRT heterodimer (Homo sapiens, UniProt O15379); experiment: Human HDAC enzyme inhibitor Fluor-de-Lys assay, HDAC3/SMRT
T2 construct: FLAG (C); made in house

HDAC6 = molecular target: T3, HDAC6 (Homo sapiens, UniProt Q9UBN7); experiment: Human HDAC enzyme inhibitor Fluor-de-Lys assay, HDAC6
T3 sequence (Q9UBN7 1-1215): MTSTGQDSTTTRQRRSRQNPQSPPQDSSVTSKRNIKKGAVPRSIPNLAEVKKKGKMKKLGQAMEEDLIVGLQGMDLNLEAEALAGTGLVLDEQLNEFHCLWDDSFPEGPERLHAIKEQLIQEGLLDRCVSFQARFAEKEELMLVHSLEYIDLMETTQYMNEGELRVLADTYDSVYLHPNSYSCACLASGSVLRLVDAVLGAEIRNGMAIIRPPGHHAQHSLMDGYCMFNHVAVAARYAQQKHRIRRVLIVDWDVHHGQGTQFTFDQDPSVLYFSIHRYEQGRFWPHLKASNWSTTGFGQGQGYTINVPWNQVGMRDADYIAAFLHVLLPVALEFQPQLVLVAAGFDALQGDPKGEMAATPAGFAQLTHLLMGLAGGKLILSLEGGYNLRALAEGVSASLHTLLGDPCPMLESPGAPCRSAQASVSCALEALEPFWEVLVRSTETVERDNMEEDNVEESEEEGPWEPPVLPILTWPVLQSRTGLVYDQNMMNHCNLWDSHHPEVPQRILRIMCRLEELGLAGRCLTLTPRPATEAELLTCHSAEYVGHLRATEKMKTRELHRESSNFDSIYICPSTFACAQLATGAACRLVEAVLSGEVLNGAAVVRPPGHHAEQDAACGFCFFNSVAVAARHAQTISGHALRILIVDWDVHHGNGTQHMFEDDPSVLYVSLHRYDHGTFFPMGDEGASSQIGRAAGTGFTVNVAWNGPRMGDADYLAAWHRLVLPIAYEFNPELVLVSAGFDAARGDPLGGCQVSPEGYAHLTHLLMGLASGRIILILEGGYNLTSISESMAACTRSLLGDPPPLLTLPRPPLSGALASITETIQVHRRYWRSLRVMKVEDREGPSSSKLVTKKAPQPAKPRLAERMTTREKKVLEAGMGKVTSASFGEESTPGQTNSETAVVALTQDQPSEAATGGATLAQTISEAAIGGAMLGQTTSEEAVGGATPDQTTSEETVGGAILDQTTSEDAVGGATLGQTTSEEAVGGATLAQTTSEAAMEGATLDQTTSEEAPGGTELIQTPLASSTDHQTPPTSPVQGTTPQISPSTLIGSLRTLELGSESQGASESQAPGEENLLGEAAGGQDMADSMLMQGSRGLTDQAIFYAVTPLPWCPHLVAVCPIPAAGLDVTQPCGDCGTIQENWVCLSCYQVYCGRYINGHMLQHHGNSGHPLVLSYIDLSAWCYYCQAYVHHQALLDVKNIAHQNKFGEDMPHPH

Recombinant human HDAC8 = molecular target: T4, Recombinant human HDAC8 (Homo sapiens, UniProt Q9BY41); experiment: Human HDAC enzyme inhibitor Fluor-de-Lys assay, HDAC8
T4 construct: purchased Enzo Life Sciences BML-SE145-0100
T4 sequence (Q9BY41 1-377): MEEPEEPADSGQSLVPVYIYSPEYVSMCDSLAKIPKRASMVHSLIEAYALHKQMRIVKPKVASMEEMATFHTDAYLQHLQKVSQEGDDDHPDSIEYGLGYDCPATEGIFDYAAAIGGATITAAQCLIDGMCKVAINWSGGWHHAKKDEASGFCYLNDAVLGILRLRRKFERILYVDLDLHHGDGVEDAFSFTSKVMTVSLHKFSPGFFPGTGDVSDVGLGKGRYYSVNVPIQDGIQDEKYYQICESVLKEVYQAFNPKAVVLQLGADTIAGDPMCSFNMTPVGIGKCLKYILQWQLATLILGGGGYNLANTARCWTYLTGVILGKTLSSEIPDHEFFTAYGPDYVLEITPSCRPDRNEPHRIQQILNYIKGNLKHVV

T2 sequence (O15379 whole entry): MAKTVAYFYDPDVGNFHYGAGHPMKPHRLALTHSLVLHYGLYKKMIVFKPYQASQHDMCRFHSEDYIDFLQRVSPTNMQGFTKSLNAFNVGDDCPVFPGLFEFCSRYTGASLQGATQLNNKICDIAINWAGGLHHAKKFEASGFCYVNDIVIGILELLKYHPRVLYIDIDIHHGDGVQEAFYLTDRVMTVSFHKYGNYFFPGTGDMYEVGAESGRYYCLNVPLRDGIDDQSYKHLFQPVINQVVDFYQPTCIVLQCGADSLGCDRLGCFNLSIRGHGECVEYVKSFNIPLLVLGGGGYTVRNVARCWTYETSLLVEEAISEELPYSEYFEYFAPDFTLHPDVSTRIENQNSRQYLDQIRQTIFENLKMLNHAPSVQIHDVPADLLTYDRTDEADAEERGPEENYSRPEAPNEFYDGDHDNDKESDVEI
T2 sequence (Q9Y618 1-899 partner limits assumed): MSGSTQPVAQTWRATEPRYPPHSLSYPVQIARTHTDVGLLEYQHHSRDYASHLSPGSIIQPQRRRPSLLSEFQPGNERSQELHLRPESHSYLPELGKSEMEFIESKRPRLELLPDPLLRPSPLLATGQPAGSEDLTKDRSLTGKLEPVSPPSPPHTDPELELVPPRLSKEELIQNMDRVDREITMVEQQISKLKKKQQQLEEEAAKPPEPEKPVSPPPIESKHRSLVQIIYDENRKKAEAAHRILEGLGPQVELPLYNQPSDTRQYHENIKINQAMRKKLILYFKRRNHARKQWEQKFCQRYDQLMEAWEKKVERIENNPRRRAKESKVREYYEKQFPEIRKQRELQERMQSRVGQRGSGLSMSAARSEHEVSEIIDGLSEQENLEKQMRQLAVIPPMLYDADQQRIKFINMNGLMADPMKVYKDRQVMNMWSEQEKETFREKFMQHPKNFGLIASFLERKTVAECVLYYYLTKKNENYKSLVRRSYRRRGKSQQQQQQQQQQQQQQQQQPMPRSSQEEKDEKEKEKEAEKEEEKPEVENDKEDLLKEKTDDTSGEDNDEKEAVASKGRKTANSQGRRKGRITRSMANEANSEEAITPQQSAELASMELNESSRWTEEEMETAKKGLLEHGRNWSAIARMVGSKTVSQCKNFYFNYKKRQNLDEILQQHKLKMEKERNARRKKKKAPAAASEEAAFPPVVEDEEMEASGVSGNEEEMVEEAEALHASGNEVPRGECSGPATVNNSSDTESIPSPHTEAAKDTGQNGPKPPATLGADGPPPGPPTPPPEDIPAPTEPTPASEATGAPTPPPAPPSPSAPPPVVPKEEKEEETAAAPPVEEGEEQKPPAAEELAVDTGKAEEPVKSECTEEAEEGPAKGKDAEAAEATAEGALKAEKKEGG
T1 sequence (Q13547 whole entry): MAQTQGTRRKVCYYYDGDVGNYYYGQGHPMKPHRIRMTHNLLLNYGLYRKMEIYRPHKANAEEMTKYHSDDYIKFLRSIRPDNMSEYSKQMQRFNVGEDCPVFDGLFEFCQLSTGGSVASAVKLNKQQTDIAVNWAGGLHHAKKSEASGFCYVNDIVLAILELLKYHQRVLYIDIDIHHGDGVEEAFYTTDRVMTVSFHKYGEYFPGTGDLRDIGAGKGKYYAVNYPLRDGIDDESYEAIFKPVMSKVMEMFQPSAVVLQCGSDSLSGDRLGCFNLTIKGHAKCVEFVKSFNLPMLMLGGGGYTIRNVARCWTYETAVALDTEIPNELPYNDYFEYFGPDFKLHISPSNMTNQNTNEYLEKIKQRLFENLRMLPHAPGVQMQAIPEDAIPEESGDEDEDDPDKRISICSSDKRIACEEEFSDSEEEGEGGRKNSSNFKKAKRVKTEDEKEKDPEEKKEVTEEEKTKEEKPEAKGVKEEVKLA

| Structure (SMILES) | IC50 (Recombinant human HDAC1) [nM] | IC50 [1] [nM] | IC50 (HDAC6) [nM] | IC50 (Recombinant human HDAC8) [µM] |
| --- | --- | --- | --- | --- |
| CCC(=O)CCCCC[C@H](NC(=O)C1CC12CCN(C)C(C)(C)C2)c1ncc(-c2ccc3nc(C)ccc3c2)[nH]1 (single isomer, unassigned) [Compound 130] | 5.6 | 2.27 | 2120 | 6 |
| CCC(=O)CCCCC[C@H](NC(=O)C1CC12CCN(C)C(C)(C)C2)c1ncc(-c2ccc3nc(C)ccc3c2)[nH]1 (single isomer, unassigned) [Compound 131] | 0.48 | 0.57 | 2280 | 2.77 |
| CCC(=O)CCCCC[C@H](NC(=O)C1CC12CCN(C)C(C)(C)C2)c1ncc(-c2ccc3nc(C)ccc3c2)[nH]1 (single isomer, unassigned) [Compound 132] | 2.33 | < 1.5 | 3680 | 8.06 |
| CCC(=O)CCCCC[C@H](NC(=O)C1CC12CCN(C)C(C)(C)C2)c1ncc(-c2ccc3nc(C)ccc3c2)[nH]1 (single isomer, unassigned) [Compound 133] | < 1.5 | < 1.5 | 879 | 2.06 |
| CCC(=O)CCCCC[C@H](NC(=O)[C@@]1(C)CC12CCN(C(C)C)CC2)c1ncc(-c2ccc3nc(C)ccc3c2)[nH]1 (single isomer, unassigned) [Compound 151, (1S or 1R)-1-methyl-6-(1-methylethyl)-N-{(1S)-1-[5-(2-methylquinolin-6-yl)-1H-imidazol-2-yl]-7-oxononyl}-6-azaspiro[2.5]octane-1-carboxamide] | 5.74 | 3.94 | 5820 | 3.18 |
| CCC(=O)CCCCC[C@H](NC(=O)C1(C)CC12CCN(C(C)C)CC2)c1ncc(-c2ccc3nc(C)ccc3c2)[nH]1 (single isomer, unassigned) [Compound 152, (1S or 1R)-1-methyl-6-(1-methylethyl)-N-{(1S)-1-[5-(2-methylquinolin-6-yl)-1H-imidazol-2-yl]-7-oxononyl}-6-azaspiro[2.5]octane-1-carboxamide] | 0.94 | 0.85 | 19200 | 5.06 |
| CCC(=O)CCCCC[C@H](NC(=O)C1CC12CC1CCC(C2)N1C)c1ncc(-c2ccc3ncccc3c2)[nH]1 (single isomer, unassigned) [Compound 166] | 0.37 | 0.32 | 229 | 5.66 |
| CCC(=O)CCCCC[C@H](NC(=O)C1CN(C)C1)c1[nH]c(-c2ccc(F)cc2)nc1Br [Compound 65, N-{(1S)-1-[4-bromo-2-(4-fluorophenyl)-1H-imidazol-5-yl]-7-oxononyl}-1-methylazetidine-3-carboxamide] | 44.9 | 20.6 | > 45000 | 40 |
| CCC(=O)CCCCC[C@H](NC(=O)[C@H]1CC12CCN(C)CC2)c1ncc(-c2ccc3nc(N(C)C)ccc3c2)[nH]1 [Compound 66, (1S)—N-[(1S)-1-{5-[2-(dimethylamino)quinolin-6-yl]-1H-imidazol-2-yl}-7-oxononyl]-6-methyl-6-azaspiro[2.5]octane-1-carboxamide] | 147 | 167 | > 450 | > 1.5 |
| CCC(=O)CCCCC[C@H](NC(=O)[C@H]1CC12CCN(C)CC2)c1ncc(-c2cnc3cccnc3c2)[nH]1 [Compound 67] | 19.6 | – | 1280 | 2.59 |
| CN1CCC2(CC1)C[C@@H]2C(=O)N[C@@H](CCCCCC(=O)CC(F)(F)F)c1ncc(-c2ccc(F)cc2)[nH]1 [Compound 68] | 8.74 | 8.59 | 6810 | 4.41 |
| CCC(=O)CCCCC[C@H](NC(=O)C1CN(C)C1)c1ncc(-c2ccc3c(c2)C2CCC3C2)[nH]1 (stereo partly drawn) [Compound 73, 1-methyl-N-{(1S)-7-oxo-1-[5-(1,2,3,4-tetrahydro-1,4-methanonaphthalen-6-yl)-1H-imidazol-2-yl]nonyl}azetidine-3-carboxamide] | 31 | 9.57 | 6510 | 3.07 |
| CCC(=O)CCCCC[C@H](NC(=O)[C@H]1CC12CCN(C)CC2)c1ncc(-c2ccc3c(c2)C2CCC3C2)[nH]1 (some centres unmarked) [Compound 74] | 8.21 | 3.74 | 7850 | 4.53 |
| CCC(=O)CCCCC[C@H](NC(=O)[C@H]1CC12CCN(C)CC2)c1nc(F)c(-c2cc3ccccc3nc2OC)[nH]1 [Compound 75] | 29.3 | 2.59 | > 45000 | 27.3 |
| CCC(=O)CCCCC[C@H](NC(=O)[C@H]1CC12CCN(C)CC2)c1[nH]c(-c2ccc(F)cc2)nc1C#N [Compound 76] | 3.85 | 2.88 | 26600 | 16.8 |
| CCC(=O)CCCCC[C@H](NC(=O)[C@H]1CC12CCN(C)CC2)c1ncc(-c2cc3ccccc3nc2OC)o1 [Compound 77] | 1.53 | – | 198 | 21.7 |
| CCC(=O)CCCCC[C@H](NC(=O)C1=NOC2(CCN(C)CC2)C1)c1ncc(-c2cc3ccccc3nc2OC)[nH]1 [Compound 105] | 0.92 | – | 1510 | 2.89 |
| CCC(=O)CCCCC[C@H](NC(=O)[C@H]1CC12CCN(C)CC2)c1ncc(-c2cc3ccccc3nc2OC)o1 [Compound 125] | < 1.5 | – | 254 | 23.4 |
| CCC(=O)CCCCC[C@H](NC(=O)[C@H]1CC12CCN(CC1CC1)CC2)c1ncc(-c2cc3ccc(=O)n(C)c3cc2OC)o1 [Compound 199] | 0.35 | – | 216 | 0.3 |
